Test results reported in ChEMBL document CHEMBL5625252, “Synthesis of peptidomimetics as antibiotic adjuvants for combination with aztreonam to combat MDR Pseudomonas aeruginosa” (Eur J Med Chem, 2023).
Values after ≈ are worked out from the molar mass of the structure shown. Active and inactive are the calls of the source. The calls are words filed in the database; no cut-off is given here.

How the values were obtained:
Pseudomonas aeruginosa [1] = assay: Antibacterial activity against Pseudomonas aeruginosa 21-8 assessed as inhibition of bacterial growth incubated for 18 hrs by agar dilution method; assay type: functional
Pseudomonas aeruginosa [2] = assay: Antibacterial activity against Pseudomonas aeruginosa 23-Y372 assessed as inhibition of bacterial growth incubated for 18 hrs by agar dilution method; assay type: functional
Pseudomonas aeruginosa [3] = assay: Antibacterial activity against Pseudomonas aeruginosa 23-Y511 assessed as inhibition of bacterial growth incubated for 18 hrs by agar dilution method; assay type: functional
Pseudomonas aeruginosa [4] = assay: Antibacterial activity against Pseudomonas aeruginosa 13-35 assessed as inhibition of bacterial growth incubated for 18 hrs by agar dilution method; assay type: functional
Pseudomonas aeruginosa [5] = assay: Antibacterial activity against Pseudomonas aeruginosa 19-46 assessed as inhibition of bacterial growth incubated for 18 hrs by agar dilution method; assay type: functional
Pseudomonas aeruginosa [6] = assay: Antibacterial activity against Pseudomonas aeruginosa 21-7 assessed as inhibition of bacterial growth incubated for 18 hrs by agar dilution method; assay type: functional
Pseudomonas aeruginosa [7] = assay: Antibacterial activity against Pseudomonas aeruginosa 23-Y539 assessed as inhibition of bacterial growth incubated for 18 hrs by agar dilution method; assay type: functional
Pseudomonas aeruginosa [8] = assay: Antibacterial activity against Pseudomonas aeruginosa 21-2 assessed as inhibition of bacterial growth incubated for 18 hrs by agar dilution method; assay type: functional
Pseudomonas aeruginosa [9] = assay: Antibacterial activity against Pseudomonas aeruginosa 23-Y122 assessed as inhibition of bacterial growth incubated for 18 hrs by agar dilution method; assay type: functional
Pseudomonas aeruginosa [10] = assay: Antibacterial activity against Pseudomonas aeruginosa 12-1 assessed as inhibition of bacterial growth incubated for 18 hrs by agar dilution method; assay type: functional
Pseudomonas aeruginosa [11] = assay: Antibacterial activity against Pseudomonas aeruginosa 16-2 assessed as inhibition of bacterial growth incubated for 18 hrs by agar dilution method; assay type: functional
Pseudomonas aeruginosa [12] = assay: Antibacterial activity against Pseudomonas aeruginosa 13-3 assessed as inhibition of bacterial growth incubated for 18 hrs by agar dilution method; assay type: functional
Pseudomonas aeruginosa [13] = assay: Antibacterial activity against Pseudomonas aeruginosa 19-55 assessed as inhibition of bacterial growth incubated for 18 hrs by agar dilution method; assay type: functional
Pseudomonas aeruginosa [14] = assay: Antibacterial activity against Pseudomonas aeruginosa 13-17 assessed as inhibition of bacterial growth incubated for 18 hrs by agar dilution method; assay type: functional
Pseudomonas aeruginosa [15] = assay: Antibacterial activity against Pseudomonas aeruginosa 23-Y417 assessed as inhibition of bacterial growth incubated for 18 hrs by agar dilution method; assay type: functional; conditions: read-out: MIC
Pseudomonas aeruginosa [16] = assay: Antibacterial activity against Pseudomonas aeruginosa PAO1 assessed as inhibition of bacterial growth incubated for 18 hrs by agar dilution method; assay type: functional
Pseudomonas aeruginosa [17] = assay: Antibacterial activity against Pseudomonas aeruginosa 23-Y364 assessed as inhibition of bacterial growth incubated for 18 hrs by agar dilution method; assay type: functional
Pseudomonas aeruginosa [18] = assay: Antibacterial activity against Pseudomonas aeruginosa 16-11 assessed as inhibition of bacterial growth incubated for 18 hrs by agar dilution method; assay type: functional
Klebsiella pneumoniae [19] = assay: Antibacterial activity against ESBLs (+) Klebsiella pneumoniae ATCC 700603 assessed as inhibition of bacterial growth incubated for 18 hrs by agar dilution method; assay type: functional
Pseudomonas aeruginosa [20] = assay: Antibacterial activity against Pseudomonas aeruginosa PAO1 in CAMH broth medium supplemented with 20.99 to 21.09 mM Mg2+ by checkerboard assay; assay type: functional
Escherichia coli [21] = assay: Antibacterial activity against mcr-1 (+) Escherichia coli 08-85 assessed as inhibition of bacterial growth incubated for 18 hrs by agar dilution method; assay type: functional
Escherichia coli [22] = assay: Antibacterial activity against NDM-1 (+) Escherichia coli CDC 1001728 assessed as inhibition of bacterial growth incubated for 18 hrs by agar dilution method; assay type: functional
Klebsiella pneumoniae [23] = assay: Antibacterial activity against ESBLs (+) Klebsiella pneumoniae 16-14 assessed as inhibition of bacterial growth incubated for 18 hrs by agar dilution method; assay type: functional
Klebsiella pneumoniae [24] = assay: Antibacterial activity against NDM-1 (+) Klebsiella pneumoniae 2146 assessed as inhibition of bacterial growth incubated for 18 hrs by agar dilution method; assay type: functional
Pseudomonas aeruginosa [25] = assay: Antibacterial activity against Pseudomonas aeruginosa 16-2 at 16 ug/ml measured upto 24 hrs by time-kill assay; assay type: functional, organism-based; conditions: dose 16.0 µg/ml
Pseudomonas aeruginosa [26] = assay: Antibacterial activity against Pseudomonas aeruginosa 12-1 in CAMH broth medium supplemented with 20.99 to 21.09 mM Mg2+ by checkerboard assay; assay type: functional
Pseudomonas aeruginosa [27] = assay: Antibacterial activity against Pseudomonas aeruginosa PAO1 in CAMH broth medium supplemented with 0.41 to 0.51 mM Mg2+ by checkerboard assay; assay type: functional
Pseudomonas aeruginosa [28] = assay: Antibacterial activity against Pseudomonas aeruginosa PAO1 infected in Galleria mellonella assessed as increase in larvae survival at 25 mg/kg measured every 12 hrs; assay type: functional, organism-based
Pseudomonas aeruginosa [29] = assay: Antibacterial activity against Pseudomonas aeruginosa 13-35 in CAMH broth medium supplemented with 20.99 to 21.09 mM Mg2+ by checkerboard assay; assay type: functional
Pseudomonas aeruginosa [30] = assay: Antibacterial activity against Pseudomonas aeruginosa 12-1 in CAMH broth medium supplemented with 0.41 to 0.51 mM Mg2+ by checkerboard assay; assay type: functional
Pseudomonas aeruginosa [31] = assay: Antibacterial activity against Pseudomonas aeruginosa PAO1 at 2 ug/ml measured upto 24 hrs by time-kill assay; assay type: functional, organism-based; conditions: dose 2.0 µg/ml
Pseudomonas aeruginosa [32] = assay: Antibacterial activity against BL (+) Pseudomonas aeruginosa ATCC 27853 assessed as inhibition of bacterial growth incubated for 18 hrs by agar dilution method; assay type: functional
Pseudomonas aeruginosa [33] = assay: Antibacterial activity against Pseudomonas aeruginosa 16-11 in CAMH broth medium supplemented with 0.41 to 0.51 mM Mg2+ by checkerboard assay; assay type: functional
Pseudomonas aeruginosa [34] = assay: Antibacterial activity against Pseudomonas aeruginosa 13-35 in CAMH broth medium supplemented with 0.41 to 0.51 mM Mg2+ by checkerboard assay; assay type: functional
Pseudomonas aeruginosa [35] = assay: Antibacterial activity against Pseudomonas aeruginosa 16-2 infected in Galleria mellonella assessed as larvae survival rate at 50 mg/kg after 96 hrs of innoculation; assay type: functional
Pseudomonas aeruginosa [36] = assay: Antibacterial activity against Pseudomonas aeruginosa 16-11 in CAMH broth medium supplemented with 20.99 to 21.09 mM Mg2+ by checkerboard assay; assay type: functional
Escherichia coli [37] = assay: Antibacterial activity against ESBLs (-) Escherichia coli ATCC 25922 assessed as inhibition of bacterial growth incubated for 18 hrs by agar dilution method; assay type: functional
Klebsiella pneumoniae [38] = assay: Antibacterial activity against NDM-1 (+) Klebsiella pneumoniae 09-20 assessed as inhibition of bacterial growth incubated for 18 hrs by agar dilution method; assay type: functional
Escherichia coli [39] = assay: Antibacterial activity against ESBLs (+) Escherichia coli 16-1 assessed as inhibition of bacterial growth incubated for 18 hrs by agar dilution method; assay type: functional

CC(C)(O/N=C(\C(=O)N[C@@H]1C(=O)N2C(C(=O)[O-])=C(C[n+]3ccccc3)CS[C@H]12)c1csc(N)n1)C(=O)O [CEFTAZIDIME]
MIC (Pseudomonas aeruginosa [1]): 1 µg/mL (≈ 1.83 µM)
MIC (Pseudomonas aeruginosa [2]): > 256 µg/mL
MIC (Pseudomonas aeruginosa [3]): 1 µg/mL (≈ 1.83 µM)
MIC (Pseudomonas aeruginosa [4]): 16 µg/mL (≈ 29.3 µM)
MIC (Pseudomonas aeruginosa [5]): 128 µg/mL (≈ 234 µM)
MIC (Pseudomonas aeruginosa [6]): > 256 µg/mL
MIC (Pseudomonas aeruginosa [7]): 32 µg/mL (≈ 58.5 µM)
MIC (Pseudomonas aeruginosa [8]): 64 µg/mL (≈ 117 µM)
MIC (Pseudomonas aeruginosa [9]): 256 µg/mL (≈ 468 µM)
MIC (Pseudomonas aeruginosa [10]): 64 µg/mL (≈ 117 µM)
MIC (Pseudomonas aeruginosa [11]): 128 µg/mL (≈ 234 µM)
MIC (Pseudomonas aeruginosa [12]): 64 µg/mL (≈ 117 µM)
MIC (Pseudomonas aeruginosa [13]): 128 µg/mL (≈ 234 µM)
MIC (Pseudomonas aeruginosa [14]): 64 µg/mL (≈ 117 µM)
MIC (Pseudomonas aeruginosa [15]): 4 µg/mL (≈ 7.32 µM)
MIC (Pseudomonas aeruginosa [16]): 2 µg/mL (≈ 3.66 µM)
MIC (Pseudomonas aeruginosa [17]): 64 µg/mL (≈ 117 µM)
MIC (Pseudomonas aeruginosa [18]): > 256 µg/mL

C[C@@H](O)[C@H]1C(=O)N2C(C(=O)O)=C(SCCNC=N)C[C@H]12 [IMIPENEM ANHYDROUS]
MIC (Pseudomonas aeruginosa [1]): 1 µg/mL (≈ 3.34 µM)
MIC (Pseudomonas aeruginosa [2]): 128 µg/mL (≈ 428 µM)
MIC (Pseudomonas aeruginosa [3]): 0.5 µg/mL (≈ 1.67 µM)
MIC (Pseudomonas aeruginosa [4]): 32 µg/mL (≈ 107 µM)
MIC (Pseudomonas aeruginosa [5]): 32 µg/mL (≈ 107 µM)
MIC (Pseudomonas aeruginosa [6]): 16 µg/mL (≈ 53.4 µM)
MIC (Pseudomonas aeruginosa [7]): 8 µg/mL (≈ 26.7 µM)
MIC (Pseudomonas aeruginosa [8]): 16 µg/mL (≈ 53.4 µM)
MIC (Pseudomonas aeruginosa [9]): 4 µg/mL (≈ 13.4 µM)
MIC (Pseudomonas aeruginosa [10]): 64 µg/mL (≈ 214 µM)
MIC (Pseudomonas aeruginosa [11]): 32 µg/mL (≈ 107 µM)
MIC (Pseudomonas aeruginosa [12]): 64 µg/mL (≈ 214 µM)
MIC (Pseudomonas aeruginosa [13]): 32 µg/mL (≈ 107 µM)
MIC (Pseudomonas aeruginosa [14]): 32 µg/mL (≈ 107 µM)
MIC (Pseudomonas aeruginosa [15]): 16 µg/mL (≈ 53.4 µM)
MIC (Pseudomonas aeruginosa [16]): 8 µg/mL (≈ 26.7 µM)
MIC (Pseudomonas aeruginosa [17]): 16 µg/mL (≈ 53.4 µM)
MIC (Pseudomonas aeruginosa [18]): 1 µg/mL (≈ 3.34 µM)

C[C@H]1[C@H](NC(=O)/C(=N\OC(C)(C)C(=O)O)c2csc(N)n2)C(=O)N1S(=O)(=O)O [AZTREONAM]
MIC (Pseudomonas aeruginosa [2]): 32 µg/mL (≈ 73.5 µM)
MIC (Pseudomonas aeruginosa [3]): 32 µg/mL (≈ 73.5 µM)
MIC (Pseudomonas aeruginosa [4]): 32 µg/mL (≈ 73.5 µM)
MIC (Klebsiella pneumoniae [19]): 32 µg/mL (≈ 73.5 µM)
MIC (Pseudomonas aeruginosa [5]): 128 µg/mL (≈ 294 µM)
MIC (Pseudomonas aeruginosa [20]): 8 µg/mL
MIC (Escherichia coli [21]): 4 µg/mL (≈ 9.19 µM)
MIC (Escherichia coli [22]): 4 µg/mL (≈ 9.19 µM)
MIC (Pseudomonas aeruginosa [6]): > 256 µg/mL
MIC (Pseudomonas aeruginosa [7]): 64 µg/mL (≈ 147 µM)
MIC (Pseudomonas aeruginosa [8]): 64 µg/mL (≈ 147 µM)
MIC (Pseudomonas aeruginosa [9]): 32 µg/mL (≈ 73.5 µM)
MIC (Klebsiella pneumoniae [23]): 4 µg/mL (≈ 9.19 µM)
MIC (Klebsiella pneumoniae [24]): > 128 µg/mL
Activity (Pseudomonas aeruginosa [25]): inactive
MIC (Pseudomonas aeruginosa [26]): 64 µg/mL
MIC (Pseudomonas aeruginosa [10]): 64 µg/mL (≈ 147 µM)
MIC (Pseudomonas aeruginosa [27]): 8 µg/mL
Activity (Pseudomonas aeruginosa [28]): inactive
MIC (Pseudomonas aeruginosa [29]): 32 µg/mL
MIC (Pseudomonas aeruginosa [30]): 64 µg/mL
MIC (Pseudomonas aeruginosa [12]): 64 µg/mL (≈ 147 µM)
Activity (Pseudomonas aeruginosa [31]): inactive
MIC (Pseudomonas aeruginosa [32]): 4 µg/mL (≈ 9.19 µM)
MIC (Pseudomonas aeruginosa [33]): 8 µg/mL
MIC (Pseudomonas aeruginosa [13]): 128 µg/mL (≈ 294 µM)
MIC (Pseudomonas aeruginosa [34]): 32 µg/mL
MIC (Pseudomonas aeruginosa [14]): 64 µg/mL (≈ 147 µM)
Activity (Pseudomonas aeruginosa [35]): 30%
MIC (Pseudomonas aeruginosa [36]): 8 µg/mL
MIC (Escherichia coli [37]): 0.06 µg/mL (≈ 0.138 µM)
MIC (Klebsiella pneumoniae [38]): 0.25 µg/mL (≈ 0.574 µM)
MIC (Pseudomonas aeruginosa [16]): 8 µg/mL (≈ 18.4 µM)
MIC (Escherichia coli [39]): ≤ 0.03 µg/mL
MIC (Pseudomonas aeruginosa [17]): > 256 µg/mL
MIC (Pseudomonas aeruginosa [18]): 8 µg/mL (≈ 18.4 µM)

C[C@@H](O)[C@H]1C(=O)N2C(C(=O)O)=C(S[C@@H]3CN[C@H](C(=O)N(C)C)C3)[C@H](C)[C@H]12 [MEROPENEM]
MIC (Pseudomonas aeruginosa [1]): 0.5 µg/mL (≈ 1.3 µM)
MIC (Pseudomonas aeruginosa [2]): > 256 µg/mL
MIC (Pseudomonas aeruginosa [3]): 0.125 µg/mL (≈ 0.326 µM)
MIC (Pseudomonas aeruginosa [4]): 32 µg/mL (≈ 83.4 µM)
MIC (Pseudomonas aeruginosa [5]): 128 µg/mL (≈ 334 µM)
MIC (Pseudomonas aeruginosa [6]): 16 µg/mL (≈ 41.7 µM)
MIC (Pseudomonas aeruginosa [7]): 1 µg/mL (≈ 2.61 µM)
MIC (Pseudomonas aeruginosa [8]): 16 µg/mL (≈ 41.7 µM)
MIC (Pseudomonas aeruginosa [9]): 128 µg/mL (≈ 334 µM)
MIC (Pseudomonas aeruginosa [10]): 16 µg/mL (≈ 41.7 µM)
MIC (Pseudomonas aeruginosa [11]): 16 µg/mL (≈ 41.7 µM)
MIC (Pseudomonas aeruginosa [12]): 32 µg/mL (≈ 83.4 µM)
MIC (Pseudomonas aeruginosa [13]): 128 µg/mL (≈ 334 µM)
MIC (Pseudomonas aeruginosa [14]): 32 µg/mL (≈ 83.4 µM)
MIC (Pseudomonas aeruginosa [15]): 16 µg/mL (≈ 41.7 µM)
MIC (Pseudomonas aeruginosa [16]): 2 µg/mL (≈ 5.22 µM)
MIC (Pseudomonas aeruginosa [17]): 2 µg/mL (≈ 5.22 µM)
MIC (Pseudomonas aeruginosa [18]): 1 µg/mL (≈ 2.61 µM)
